One data set is described as follows: clinical. The conditions noted are these: both, human, plasma, oral.
Data set [1] is described as follows: Steady-state plasma pharmacokinetics of Trospium in subjects 65 years or older with overactive bladder symptoms (Example 1). The format is in vivo, human. To be noted: Day 10, 60 mg Trospium daily for 10 days. Here is the method: (§1) A single-center, single-blind, randomized, placebo-controlled, parallel group study was conducted to evaluate whether Trospium permeates across the human blood-brain barrier and whether Trospium could cause cognitive impairment.

Data set [2] is described as follows: Trospium in cerebrospinal fluid: permeation across the blood-brain barrier (Example 1). The format is in vivo, human. On the procedure:
as §1
For cerebrospinal fluid sampling at each pharmacokinetics time point, about 2.5 mL of cerebral spinal fluid was collected on Day 10 at 0 hr, 2 hr, 5 hr, 7 hr, 12 hr, and 24 hr post dose.

The nature of data set [3]: Neuropsychology testing: HVLT-R and BVMT-R, reliable change index (Example 1). The format is in vivo, human. Here is the method: as §1
For neuropsychology testing, each subject underwent the Hopkins Verbal Learning Test-Revised (HVLT-R) and the Brief Visuospatial Memory Test-Revised (BVMT-R) on Days 0, 9, and 10. Pre-dose (Day 0) and post-dose (Day 10) results on the neuropsychology tests were compared using a reliable change index to assess a change in learning of memory.

The conditions of data set [4]: through tubular secretion and glomerular filtration; cited from earlier work.
For data set [5] the following is noted: for Trospium Ae,0-24 (amount excreted unchanged in urine) / Trospium Ae,0-24/Dose (percentage of dose excreted in urine) / Trospium CLss/F (oral clearance) / Tmax: steady state; for Tmax: Trospium Tmax.
The conditions of data set [6]: metabolite of Trospium; cited from earlier work.
Setting [7] is: 60 mg Trospium with 500 mg Metformin.
[8] abbreviates: Glucophage/Sanctura XR regime (co-administered with 500 mg Metformin twice daily), N = 43.
Setting [9] is: Trospium with Metformin versus Trospium alone.
The mark [10] stands for this setting: both, human, plasma, oral, 60 mg.
Setting [11] is: column headed Glucophage ® Dosage Regime, N = 44, 60 mg Trospium daily for 10 days alone.

Each structure is given as a SMILES string. Like-named read-outs stand apart in the source and are kept apart here.

For `CN(C)C(=N)N=C(N)N` [Metformin, N,N-dimethylimidodicarbonimidic diamide], in the data set “clinical”, the concentration at 11 hr is 155 ng/mL and the concentration at 15 hr worked out at 83 ng/mL.

As for `O=C(OC1CC2CCC(C1)[N+]21CCCC1)C(O)(c1ccccc1)c1ccccc1.[Cl-]` (stereo not shown) [Trospium, 3-(2-hydroxy-2,2-diphenylacetoxy) spiro[bicyclo[3.2.1]octane-8,1′-pyrrolidin]-1′-ium chloride], in data set [1] (0 hr post dose), the “Trospium concentration in plasma” value is given as 522 pg/mL. For the same molecule, in data set [1] (5 hr post dose), the “Trospium concentration in plasma” value was determined as 925 pg/mL. The “Trospium concentration in plasma” value in data set [1] (24 hr post dose) came out at 649 pg/mL. Also, the “Time of peak plasma concentration post-dosing” value in data set [1] turned out to be 5 h. Further, the AUC(0-t) in data set [1] (both sexes, human, plasma, linear trapezoidal rule, read-out: AUC0-24, steady state) was found to be 18500 ng·h/mL. The Cmax in data set [1] (both sexes, human, plasma, read-out: Peak plasma concentration (Cmax)) amounted to 0.925 ng/mL. In addition, in data set [2] (0 hr post dose, Day 10, 60 mg Trospium daily for 10 days), the “Trospium concentration in cerebrospinal fluid” value is listed as below 40 pg/mL. In addition, the “Trospium concentration in cerebrospinal fluid” value in data set [2] (5 hr post dose, Day 10, 60 mg Trospium daily for 10 days) is below 40 pg/mL. Moreover, the “Trospium concentration in cerebrospinal fluid” value in data set [2] (24 hr post dose, Day 10, 60 mg Trospium daily for 10 days) was below 40 pg/mL. Further, the “Trospium in cerebrospinal fluid, all 72 samples” value in data set [2] (Day 10, 0 to 24 hr post dose, detectable range 40 pg/mL) is listed as below 40 pg/mL. This molecule also had a concentration at 5 h in data set [2] (both sexes, human, cerebrospinal fluid, 5 hr post dose, Day 10, 60 mg Trospium daily for 10 days) below 0.04 ng/mL. Also, the “Crossing of the blood-brain barrier” value in data set [2] (conclusion from the cerebrospinal fluid levels) is “does not cross the blood-brain barrier”. Also, the “Net drug effect on cognition (HVLT-R, BVMT-R)” value in data set [3] (Day 0 versus Day 10, one subject deteriorated on total recall in both tests) is “no meaningful net drug effect on cognition”. The “Cognitive impairment or memory loss” value in data set [3] (conclusion from the neuropsychology testing) is reported as “does not cause cognitive impairment or memory loss”. In addition, the “Share of the absorbed dose excreted unchanged in the urine” value in data set [4] was 60%. In addition, in data set [5] (setting [7]), the “Reduction of steady-state AUC0-24 of Trospium by co-administered Metformin” value is around 29% and the “Reduction of steady-state Cmax of Trospium by co-administered Metformin” value is reported as “approximately 34%”. For the same molecule, in data set [5] (setting [8]), the “Trospium Ae,0-24 (amount excreted unchanged in urine)” value amounted to 0.281 ± 0.156 mg, the “Trospium Ae,0-24/Dose (percentage of dose excreted in urine)” value amounted to 0.468 ± 0.260% and the “Trospium CLss/F (oral clearance)” value was 4830 ± 2320 L/h. In addition, in data set [5] (setting [9]), the “Percentage Ratio and 90% CI of the Geometric Mean of AUC0-24 (Combination/Alone)” value is on record as 70.8 (66.2-75.7) %; the “Percentage Ratio and 90% CI of the Geometric Mean of Cmax (Combination/Alone)” value is reported as 66.3 (61.0-72.0) %. In data set [5] (setting [10]), this molecule registered an AUC(0-t) of 22.7 ng·h/mL, a Cmax of 1.87 ng/mL, a concentration at 0 hr of 0.676 ng/mL and a concentration at 1 hr of 0.831 ng/mL. Further, in data set [5] (setting [10]), the concentration at 2 hr amounted to 1.36 ng/mL, the concentration at 3 hr worked out at 1.57 ng/mL, the concentration at 4 hr came to 1.54 ng/mL and the concentration at 5 hr worked out at 1.53 ng/mL. Moreover, in data set [5] (setting [10]), the concentration at 6 hr was 1.66 ng/mL, the concentration at 8 hr was found to be 1.12 ng/mL, the concentration at 10 hr stood at 0.878 ng/mL and the concentration at 12 hr was 0.781 ng/mL. In data set [5] (setting [10]), this molecule had a concentration at 16 hr of 0.676 ng/mL and a concentration at 24 hr of 0.655 ng/mL. For the same molecule, the Tmax in data set [5] (both, human, plasma, oral, 60 mg, column headed Glucophage ® Dosage Regime, N = 44, 60 mg Trospium daily for 10 days alone) is around 4.42 h. In addition, the Tmax in data set [5] (both, human, plasma, oral, Glucophage/Sanctura XR regime (co-administered with 500 mg Metformin twice daily), N = 43) was around 4 h. Besides, the CL renal in data set [5] (both, human, urine and plasma, oral, 60 mg) is 307 mL/min. Further, in data set [5] (setting [11]), the “Trospium Ae,0-24 (amount excreted unchanged in urine)” value is 0.400 ± 0.247 mg, the “Trospium Ae,0-24/Dose (percentage of dose excreted in urine)” value came to 0.667 ± 0.411% and the “Trospium CLss/F (oral clearance)” value amounted to 3510 ± 1920 L/h. In data set [5] (p value<0.0001), the “Reduction in percentage of Trospium dose excreted in urine on co-administration of Metformin” value was 30%.

As for `OC1C[C@H]2CC[C@@H](C1)[N+]21CCCC1` (stereo partly shown) [azoniaspironortropanol], the “Pharmacological activity of the metabolite” value in data set [6] is “pharmacologically inactive”.

The values are drawn from patent publication US20110312986A1, “Composition and Method for Treating Overactive Bladder” (ALLERGAN, INC., priority 2010, published 2011).
